From PMC12163635, “Synthetic Retinoids for the Modulation of Genomic and Nongenomic Processes in Neurodegenerative Diseases” (ACS Omega, 2025)

Tested on: SH-SY5Y cells
Test: Neurite outgrowth
Assay type: cell-based, human
Settings: 5 days; for fold induction at 0.01 µM: Homo sapiens, SH-SY5Y, 120 h, read-out: fold increase in neurite outgrowth; for induction of neurite outgrowth compared with ATRA: 10 nM
Protocol: Following the characterization of retinoids for their genomic and nongenomic activities, the ability of retinoids to differentiate and induce neurite outgrowth in the neuroblastoma cell line, SH-SY5Y cells, was examined (Figure ). Neurite outgrowth can be induced in this cell line by ATRA at 10 μM.
SH-SY5Y cell line as used in ERK phosphorylation and neurite outgrowth assays described below. The cells were grown in DMEM containing 10% FCS at 37 °C with 5% CO2. The medium was changed three times a week and the cells were passaged at 70% confluence using 0.05% trypsin-EDTA.
SH-SY5Y cells were plated at 10,000 cells/well in 12-well plates containing 16 mm acid-treated/poly L-lysine-coated glass coverslips. After 24 h, retinoids were added to the medium and tested at two different concentrations, 10 μM and 10 nM, with a final DMSO concentration of 0.01 or 0.0001%, respectively. The plates were incubated for 5 days at 5% CO2/37 °C. All retinoid concentrations were tested in triplicate. Cells were fixed using 4% paraformaldehyde and stained for β-III tubulin (1:1000; Sigma). For each neurite outgrowth experiment, 3 coverslips (in 3 wells) were used. ImageJ software with the NeuronJ plugin was used to quantify neurite outgrowth on stained cells in each of the 10 randomly selected images of each coverslip taken using a Nikon Eclipse E400 fluorescence microscope. The average neurite length was calculated for each image by dividing total neurite length by the total number of neurites per image.
All data are presented as mean ± SEM of three independent experiments with biological triplicates. Statistical analyses were performed in Microsoft Office Excel 2019 or GraphPad Prism 7.0c version (Prism, GraphPad Software, San Diego, CA). Neurite outgrowth data were analyzed by one-way ANOVA with Newman-Keuls multiple comparison test as appropriate; P value <0.05 was considered statistically significant. *P < 0.05, **P < 0.01. Data for X-Gal and ERK1/2 phosphorylation were analyzed using sigmoidal dose–response analysis of log (agonist) versus response curve (stimulation).

[1] = 10 nM compound, in comparison to nontreated cells

Row | Structure (SMILES) | fold induction at 0.01 µM [1] | induction of neurite outgrowth compared with ATRA | fold increase in neurite outgrowth [1]
1 | CC1(C)CCC(C)(C)c2cc(C#Cc3ccc(C(=O)O)c(F)c3)ccc21 [Compound 13, 2-Fluoro-4-[2-(5,5,8,8-tetramethyl-5,6,7,8-tetrahydronaphthalen-2-yl)ethynyl]benzoic Acid] | 1.9 | – | –
2 | CC1(C)CCC(C)(C)c2cc(C#Cc3ccc(C(=O)O)cc3F)ccc21 [Compound 14, 3-Fluoro-4-[2-(5,5,8,8-tetramethyl-5,6,7,8-tetrahydronaphthalen-2-yl)ethynyl]benzoic Acid] | 2.1 | – | –
3 | CC1(C)CCC(C)(C)c2cc(C#Cc3cc(F)c(C(=O)O)c(F)c3)ccc21 [Compound 15, 2,6-Difluoro-4-[2-(5,5,8,8-tetramethyl-5,6,7,8-tetrahydronaphthalen-2-yl)ethynyl]benzoic Acid] | 1.7 | – | –
4 | CC1(C)CCC(C)(C)c2cc(C#Cc3ccc(C(=O)O)cc3Cl)ccc21 [Compound 16, 3-Chloro-4-[2-(5,5,8,8-tetramethyl-5,6,7,8-tetrahydronaphthalen-2-yl)ethynyl]benzoic Acid] | 1.6 | – | –
5 | Cc1cc2c(cc1C#Cc1ccc(C(=O)O)c(F)c1)C(C)(C)CCC2(C)C [Compound 17, 2-Fluoro-4-[2-(3,5,5,8,8-pentamethyl-5,6,7,8-tetrahydronaphthalen-2-yl)ethynyl]benzoic Acid] | – | induced neurite outgrowth but not significantly compared to ATRA | –
6 | Cc1cc2c(cc1C#Cc1ccc(C(=O)O)cc1F)C(C)(C)CCC2(C)C [Compound 18, 3-Fluoro-4-[2-(3,5,5,8,8-pentamethyl-5,6,7,8-tetrahydronaphthalen-2-yl)ethynyl]benzoic Acid] | – | induced neurite outgrowth but not significantly compared to ATRA | –
7 | Cc1cc2c(cc1C#Cc1cc(F)c(C(=O)O)c(F)c1)C(C)(C)CCC2(C)C [Compound 19, 2,6-Difluoro-4-[2-(3,5,5,8,8-pentamethyl-5,6,7,8-tetrahydronaphthalen-2-yl)ethynyl]benzoic Acid] | 1.6 | significantly induced neurite outgrowth compared to ATRA | –
8 | CC1(C)CCC(C)(C)c2cc(C#Cc3ccc(C(=O)O)cn3)ccc21 [Compound 23, 6-[2-(5,5,8,8-Tetramethyl-5,6,7,8-tetrahydronaphthalen-2-yl)ethynyl]pyridine-3-carboxylic Acid] | 1.9 | significantly induced neurite outgrowth compared to ATRA | –
9 | CC1(C)CCC(C)(C)c2cc(C#Cc3ccc(C(=O)O)nc3)ccc21 [Compound 24, 5-[2-(5,5,8,8-Tetramethyl-5,6,7,8-tetrahydronaphthalen-2-yl)ethynyl]pyridine-2-carboxylic Acid] | 2.2 | significantly induced neurite outgrowth compared to ATRA | –
10 | CC1(C)CCC(C)(C)c2cc(C#Cc3cnc(C(=O)O)cn3)ccc21 [Compound 25, 5-[2-(5,5,8,8-Tetramethyl-5,6,7,8-tetrahydronaphthalen-2-yl)ethynyl]pyrazine-2-carboxylic Acid] | – | induced neurite outgrowth but not significantly compared to ATRA | –
11 | Cc1cc2c(cc1C#Cc1ccc(C(=O)O)cn1)C(C)(C)CCC2(C)C [Compound 26, 6-[2-(3,5,5,8,8-Pentamethyl-5,6,7,8-tetrahydronaphthalen-2-yl)ethynyl]pyridine-3-carboxylic Acid] | – | unable to induce neurite outgrowth | no response
12 | COc1cc2c(cc1C#Cc1ncc(C(=O)O)cn1)C(C)(C)CCC2(C)C [Compound 29, 2-[2-(3-Methoxy-5,5,8,8-tetramethyl-5,6,7,8-tetrahydronaphthalen-2-yl)ethynyl]pyrimidine-5-carboxylic Acid] | – | induced neurite outgrowth but not significantly compared to ATRA | –
13 | Cc1sc(-c2ccc(C(=O)O)cn2)nc1-c1cnc2c(n1)C(C)(C)CCC2(C)C [Compound 41, 6-[5-Methyl-4-(5,5,8,8-tetramethyl-5,6,7,8-tetrahydroquinoxalin-2-yl)-1,3-thiazol-2-yl]pyridine-3-carboxylic Acid] | 1.7 | – | –
